Laboratory results taken from patent US7470807B2, “Substituted arylalkanoic acid derivatives and use thereof” (Asahi Kasei Pharma Corporation, priority 2003, dated 2008).

Tests used:
[1] = system: bleomycin-induced pulmonary fibrosis; assay: Bleomycin-induced rat pulmonary fibrosis model; format: in vivo; details: for median of the fibrosing score: bleomycin intratracheal, oral 10, 30, 100 and 300 mg/kg once or twice a day for 21 days, positive control ++ to +++; for fibrosing in groups administered with known type 4 PLA2 inhibitory compounds: bleomycin model, intraperitoneally or orally administered in a similar manner
Protocol: A suppressing effect on pulmonary fibrosing in a bleomycin-induced rat pulmonary fibrosis model, which is a pathological model of pulmonary fibrosis, was studied by the following method. Groups of BN female rats (7-week old) each consisting of seven rats were used for the test. The test animals were anesthetized with ketamine and xylazine, and the tracheae were exposed. Then, a 125 μg/0.1 ml solution of bleomycin (Nippon Kayaku) dissolved in physiological saline (Ohtsuka Pharmaceutical Factory) was injected into the tracheae by using a syringe. The negative control group was administered with 0.1 ml of saline into the tracheae.
Each test compound was suspended or dissolved in purified water containing 0.5% methylcellulose, and orally administered to the test animals at doses of 10, 30, 100 and 300 mg/5 ml/kg. The administration of the test compounds was started from the day of the bleomycin administration and performed once or twice a day for 21 days. The positive control group was administered with purified water containing 0.5% methylcellulose not added with any test compound in a similar manner. On the 21st day after the administration of bleomycin, the rats were sacrificed, and lungs were fixed with neutral buffered formalin to prepare histopathological samples. Staining of the histopathological samples was performed by the Azan method.
The histopathological samples of lungs were examined, and degree of fibrosing was represented with the following scores on the basis of formation of granulation tissues and proliferation of collagen fibers as indicators, i.e., −: no abnormality, ±: extremely mild change, +: mild change, ++: moderate change, and +++: significant change.

[2] = system: pulmonary fibrosis; details: clinical tests in the United States and Japan; cited from earlier work

| Compound | median of the fibrosing score [1] | fibrosing in groups administered with known type 4 PLA2 inhibitory compounds [1] | also measured |
| --- | --- | --- | --- |
| 3-[4-cyclopentyloxy-3-(1H-indole-5-yl)phenyl]propionic acid [G-4] | ± to + | – | – |
| 3-[4-cyclopentyloxy-3-(naphthalen-2-yl)phenyl]propionic acid [G-2] | ± to + | – | – |
| COc1cc(C(=O)O)ccc1Cc1cn(C(c2ccccc2)c2ccccc2)c2cc(Cl)ccc12 [4-(1-benzhydryl-6-chloro-1H-indol-3-ylmethyl)-3-methoxybenzoic acid, reference compound] | – | mild | – |
| O=C(CCc1ccc(OCCS(=O)(=O)CCOC(c2ccc(Cl)cc2)c2ccc(Cl)cc2)cc1)C(F)(F)F [4-{4-[2-(2-[bis(4-chlorophenyl)methoxy]ethylsulfonyl)ethoxy]phenyl}-1,1,1-trifluoro-2-butanone] | – | mild | – |
| O=C1NC(=O)C(=Cc2ccc(C(=O)NCC3CC(SC(c4ccccc4)(c4ccccc4)c4ccccc4)CN3C(=O)c3ccccc3C(=O)c3ccc(F)cc3F)cc2)S1 (stereo not drawn) [N-{1-[2-(2,4-difluorobenzoyl)benzoyl]-4-tritylsulfanylpyrrolidin-2-ylmethyl}-4-(2,4-dioxothiazolidin-5-ylidenemethyl)benzoic acid amide] | – | mild | – |
| Cc1ccc(=O)n(-c2ccccc2)c1 [pirfenidone] | – | – | effect against pulmonary fibrosis in clinical tests [2]: effective |
